Assays:
AhR = target: T1, AhR (Homo sapiens, UniProt P35869); experiment: AhR reporter assay, HepG2 cells stably expressing pCYP1A1 luciferase (AZ-AHR); type: cell-based
T1 construct: endogenous in cells; host or cells: AZ-AHR (HepG2)
T1 sequence (P35869 11-848): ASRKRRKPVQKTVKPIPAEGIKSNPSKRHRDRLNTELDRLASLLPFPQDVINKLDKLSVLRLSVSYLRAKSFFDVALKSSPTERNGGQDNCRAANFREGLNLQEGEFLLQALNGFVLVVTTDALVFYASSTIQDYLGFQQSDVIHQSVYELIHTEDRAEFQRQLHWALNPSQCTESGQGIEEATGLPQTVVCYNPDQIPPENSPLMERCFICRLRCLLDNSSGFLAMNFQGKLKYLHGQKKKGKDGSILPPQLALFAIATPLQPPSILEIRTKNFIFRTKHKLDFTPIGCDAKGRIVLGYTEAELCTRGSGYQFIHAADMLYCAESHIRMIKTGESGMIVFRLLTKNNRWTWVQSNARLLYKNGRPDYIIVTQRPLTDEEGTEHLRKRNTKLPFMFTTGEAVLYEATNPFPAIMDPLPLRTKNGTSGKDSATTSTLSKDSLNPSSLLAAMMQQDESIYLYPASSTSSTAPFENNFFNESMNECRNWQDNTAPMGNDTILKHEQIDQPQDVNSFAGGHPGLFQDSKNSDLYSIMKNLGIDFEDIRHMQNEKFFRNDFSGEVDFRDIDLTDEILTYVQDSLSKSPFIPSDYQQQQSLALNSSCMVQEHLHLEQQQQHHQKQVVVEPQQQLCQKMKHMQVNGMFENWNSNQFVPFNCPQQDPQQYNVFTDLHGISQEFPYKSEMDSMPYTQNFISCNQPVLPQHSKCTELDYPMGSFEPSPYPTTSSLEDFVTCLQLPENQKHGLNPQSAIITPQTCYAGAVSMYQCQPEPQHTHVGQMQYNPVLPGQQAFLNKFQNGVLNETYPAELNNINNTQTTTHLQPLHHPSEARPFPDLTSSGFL
Description: Incubations were performed in four technical replicates.

PXR = target: T2, PXR (Homo sapiens, UniProt O75469); experiment: PXR reporter (p3A4-luc luciferase) assay in LS180 cells transiently transfected with wild-type PXR; conditions: for FOLD INDUCTION of PXR reporter luciferase activity: 24 h, over UT
T2 sequence (O75469 1-434): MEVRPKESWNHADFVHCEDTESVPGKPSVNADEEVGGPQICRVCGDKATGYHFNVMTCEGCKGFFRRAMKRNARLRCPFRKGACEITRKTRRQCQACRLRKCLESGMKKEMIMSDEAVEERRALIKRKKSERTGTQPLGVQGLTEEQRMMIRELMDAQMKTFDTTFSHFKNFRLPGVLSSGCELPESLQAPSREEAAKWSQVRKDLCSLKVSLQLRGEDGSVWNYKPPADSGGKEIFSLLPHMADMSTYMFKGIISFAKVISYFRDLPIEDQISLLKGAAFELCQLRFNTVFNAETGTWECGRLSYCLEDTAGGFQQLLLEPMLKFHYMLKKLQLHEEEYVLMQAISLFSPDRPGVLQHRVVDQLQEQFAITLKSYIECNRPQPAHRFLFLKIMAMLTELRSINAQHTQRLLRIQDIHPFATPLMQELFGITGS
Description: Incubations were performed in four technical replicates. After the treatments, cells were lysed and luciferase activity was measured on Tecan Infinite M200 Pro plate reader (Schoeller Instruments, Prague, Czech Republic). The data are expressed as fold induction ± SD of luciferase activity over the control cells (agonistic mode—in the absence of a model ligand) or as a percentage of maximal activation ± SD (antagonistic mode—in the presence of a model ligand). […] For all the transfection experiments, specifically multiplexed transfections, the control wells were mock‐transfected ([…]). However, to exclude non‐specific binding of PXR (or other factors) upstream of the luciferase gene within non‐PXR‐binding elements, we performed pilot experiments in different cell passages (P11, P14, and P17) of LS174T cells using a mock luciferase plasmid (luciferase not containing an upstream PXR‐binding element of the CYP3A4 promoter).

[1] = AZ-AHR cells, 1 nM, fold vs DMSO
[2] = AZ-AHR cells, 10 nM, fold vs DMSO
[3] = AZ-AHR cells, 100 nM, fold vs DMSO
[4] = AZ-AHR cells, 1µM, fold vs DMSO
[5] = AZ-AHR cells, 10 µM, fold vs DMSO
[6] = LS180, read-out: FOLD INDUCTION of PXR reporter luciferase activity

SMILES | AhR activation (in words) (AhR) | FOLD INDUCTION (AZ-AHR luciferase) (AhR; [1]) [fold] | FOLD INDUCTION (AZ-AHR luciferase) (AhR; [2]) [fold] | FOLD INDUCTION (AZ-AHR luciferase) (AhR; [3]) [fold] | FOLD INDUCTION (AZ-AHR luciferase) (AhR; [4]) [fold] | FOLD INDUCTION (AZ-AHR luciferase) (AhR; [5]) [fold] | aver (mean luciferase signal of H1-H4) (PXR; 1 nM) | FOLD INDUCTION of PXR reporter luciferase activity (PXR; 1 nM) [fold] | aver (mean luciferase signal of H1-H4) (PXR; 10 nM) | FOLD INDUCTION of PXR reporter luciferase activity (PXR; 10 nM) [fold] | aver (mean luciferase signal of H1-H4) (PXR; 100 nM) | FOLD INDUCTION of PXR reporter luciferase activity (PXR; 100 nM) [fold] | aver (mean luciferase signal of H1-H4) (PXR; 1 uM) | FOLD INDUCTION of PXR reporter luciferase activity (PXR; 1 uM) [fold] | aver (mean luciferase signal of H1-H4) (PXR; 10 uM) | FOLD INDUCTION of PXR reporter luciferase activity (PXR; 10 uM) [fold] | aver (mean luciferase signal of H1-H4) (PXR; 25 uM) | FOLD INDUCTION of PXR reporter luciferase activity (PXR; 25 uM) [fold] | also measured
CC#CC(O)(c1ccncc1)c1cc2ccccc2n1S(=O)(=O)c1ccccc1 (racemic) [FKK3] | variable degrees of dose‐dependent AhR activation profiles | 0.8 | 0.7 | 0.9 | 1.1 | 5.3 | 5303.8 | 2.5 | 3556.8 | 1.7 | 7075.5 | 3.3 | 50228.8 | 23.5 | 65270.5 | 30.5 | 57813.0 | 27.0 | 
Cc1[nH]c2ccccc2c1C(c1c(C)[nH]c2ccccc12)c1c(C)[nH]c2ccccc12 [FKK999, reference compound] | variable degrees of dose‐dependent AhR activation profiles |  |  |  |  |  | 2509.3 |  | 3525.3 |  | 5905.5 |  | 26021.5 |  | 42646.5 |  | 44375.0 |  | fold induction at 24 h, 0.001 µM (AhR; human, AZ-AHR cells, 1 nM, fold vs DMSO): 1; fold induction at 24 h, 0.01 µM (AhR; human, AZ-AHR cells, 10 nM, fold vs DMSO): 1; fold induction at 24 h, 0.1 µM (AhR; human, AZ-AHR cells, 100 nM, fold vs DMSO): 3.5; fold induction at 24 h, 1 µM (AhR; human, AZ-AHR cells, 1µM, fold vs DMSO): 10.2; fold induction at 24 h, 10 µM (AhR; human, AZ-AHR cells, 10 µM, fold vs DMSO): 28.2; aver (mean luciferase signal of H1-H4) (PXR; 50 uM): 44986.8; fold induction at 0.001 µM (PXR; [6]): 1.39; fold induction at 0.01 µM (PXR; [6]): 1.95; fold induction at 0.1 µM (PXR; [6]): 3.27; fold induction at 1 µM (PXR; [6]): 14.4; fold induction at 10 µM (PXR; [6]): 23.6; fold induction at 25 µM (PXR; [6]): 24.5; fold induction at 50 µM (PXR; [6]): 24.9; PXR activation (in words) (PXR; cell-based transactivation): activated PXR
OC(c1ccncc1)(c1cc2ccccc2[nH]1)c1cc2ccccc2[nH]1 [FKK2] |  | 0.9 | 0.9 | 2.1 | 15.0 | 467.5 | 2792.0 | 1.3 | 2989.5 | 1.4 | 3008.8 | 1.4 | 7365.5 | 3.4 | 41425.5 | 19.4 | 32321.0 | 15.1 | AhR activation (AhR; 10 μM): > 100 fold
O=S(=O)(c1ccccc1)n1c(C(O)Cc2cc3ccccc3[nH]2)cc2ccccc21 (racemic) [FKK8] | variable degrees of dose‐dependent AhR activation profiles | 0.6 | 0.7 | 1.1 | 2.3 | 40.8 | 3847.5 | 1.0 | 4121.3 | 1.1 | 8608.8 | 2.3 | 58017.5 | 15.3 | 99864.5 | 26.3 | 75044.8 | 19.7 | 
OC(Cc1cc2ccccc2[nH]1)(c1ccncc1)c1cc2ccccc2[nH]1 (stereo not drawn) [FKK10] | variable degrees of dose‐dependent AhR activation profiles | 0.5 | 0.318 | 0.8 | 1.3 | 21.9 | 4648.0 | 1.3 | 3990.3 | 1.1 | 4278.0 | 1.2 | 3689.5 | 1.1 | 16756.3 | 4.8 | 52110.3 | 15.0 | 
O=S(=O)(c1ccccc1)n1c(C(O)(Cc2cc3ccccc3[nH]2)c2ccncc2)cc2ccccc21 (racemic) [FKK7] | variable degrees of dose‐dependent AhR activation profiles | 0.746 | 0.738 | 0.7 | 3.6 | 75.5 | 4342.5 | 1.1 | 4393.8 | 1.2 | 6280.8 | 1.7 | 60156.8 | 15.8 | 84023.3 | 22.1 | 80527.0 | 21.2 | 
